Results from PubChem BioAssay AID2060896 (Molecular Pharmacology Branch, DTP, NCI, 2025).

System: 941728-121-R-J1-PDC complex spheroid viability
Assay: Anticancer human tumor 941728-121-R-J1-PDC patient-derived lung adenocarcinoma cell line growth inhibition [RAS]
Conditions: for IC50: curve of first compound; for viability, T/C: stronger effect = lower value
From the text: RAS pathway inhibitors in Combinations in Complex Spheroids
A high-throughput screen of multi-cell type tumor spheroids was designed to identify active combinations of RAS pathway inhibitors and targeted small molecules. Complex spheroids include a stromal component modeled by human endothelial cells (HUVEC) and fibroblasts modeled by human mesenchymal stem cells (MSCs). The concentration ranges selected for each drug and investigational agent were based upon clinically achievable concentrations if the clinical Cmax of the agent was known.
Compounds. The drugs and investigational agents: abemaciclib (NSC768073), cobimetinib (NSC768068), divarasib (GDC6063, NSC841802), docetaxel (NSC628503), GDC-1971 (RLY-1971, NSC841576), gemcitabine (NSC613327), inavolisib (NSC800729), ipatasertib (NSC767898), KB-0742 (NSC834161), MRTX-1133 (NSC836407), osimertinib (NSC779217), RMC-4630 (NSC839698), RMC-6236 (NSC851965), RMC-6291 (NSC852671), Ro-3306 (NSC812927), sapanisertib (NSC764658), SN-38 (NSC673596), staurosporine (NSC755774), SY5609 (NSC837396), and tovorafenib (DAY101, NSC766906), were obtained from the National Cancer Institute (NCI) Developmental Therapeutics Program Chemical Repository. The FDA-approved anticancer drug set is available from the NCI Developmental Therapeutics Program. […] The stock solutions were prepared in dimethyl sulfoxide (DMSO, Sigma-Aldrich, St. Louis, MO, cat. D2650) at 800-fold the tested concentration and stored at -70 degrees C prior to their use. All drugs and investigational agents were tested over a range starting from a high concentration at or near the clinical Cmax and decreasing in half-log increments. If the clinical Cmax for an agent had not been determined, the highest concentration tested was 10 microM.
Cell Culture. All cells were maintained in an incubator at 37 degrees C and 5% CO2 with 95% humidity. The PDC lines were cultured according to standard operating procedures established by the NCI PDMR. All PDCs were thawed and cultured in Matrigel-coated flasks prepared with a working solution of 1X Ham's F-12 nutrient mix, without supplementation (Invitrogen, Waltham, MA, cat. 11765054), 100 U/mL penicillin-streptomycin (Invitrogen, cat. 15140122), and 2.5% Matrigel (Corning Inc., Corning, NY, cat. 354248) for the first three passages. The 362531-283-R-J2-PDC and 782815-120-R-J1-PDC lines were cultured in 6C/Colon 1B media, which includes advanced DMEM/F-12 (Thermo Fisher Scientific, cat. 12634028), 10 mM HEPES (Thermo Fisher Scientific, cat. 15630080), 1X GlutaMAX supplement (Thermo Fisher Scientific, cat. 35050061), 0.1 mg/mL primocin (InvivoGen, San Diego, CA, cat. ant-pm-2), 10% defined fetal bovine serum, heat inactivated (HyClone Laboratories Inc., Logan, UT, cat. SH30070.03HI), 50% L-WRN conditioned media (ATCC, cat. CRL-3276), 1.25 mM N-Acetyl-L-cysteine (Sigma-Aldrich, cat. A9165), 10 mM nicotinamide (Sigma-Aldrich, cat. N0636), 1X B-27 supplement (Thermo Fisher Scientific, cat. 17504044), 1X N-2 supplement (Thermo Fisher Scientific, cat. 17502048), 50 ng/mL human EGF (Thermo Fisher Scientific, cat. PHG0311), and 10 microM Y-27632 dihydrochloride (Tocris Bioscience, cat. 1254). The K12877-001-R-J1-PDC line was cultured in 6I media, which includes all 6C/Colon 1B media plus 10 ng/mL human FGF-10 (PeproTech, cat. 100-26), 1 ng/mL human FGF-2 (PeproTech, cat. 100-18B), 1 µM prostaglandin E2 (Tocris Bioscience, cat. 2296), […] hydrocortisone (Sigma-Aldrich, cat. H4001), and […] bovine insulin (Sigma-Aldrich, cat. I6634). The K86415-001-R-J1-PDC line was cultured in 6D media, which includes all 6C/Colon 1B media components minus the L-WRN conditioned media. The 485176-168-R4-J1-PDC was cultured in PANC media, which includes all 6C/Colon 1B media plus 100 ng/mL human FGF-10 (PeproTech, cat. 100-26), 500 nM SB-431542 (Selleckchem, cat. S1067), and 10 nM gastrin (Tocris Bioscience, cat. 3006). […]

[1] = second compound 0.0316 µM, first compound 0.0316 µM
[2] = second compound 0.0316 µM, first compound 0.1 µM
[3] = second compound 0.0316 µM, first compound 0.316 µM
[4] = second compound 0.0316 µM, first compound 1 µM
[5] = second compound 0.0316 µM, first compound 3.16 µM
[6] = second compound 0.0316 µM, first compound 10 µM
[7] = second compound 0.1 µM, first compound 0.0316 µM
[8] = second compound 0.1 µM, first compound 0.1 µM
[9] = second compound 0.1 µM, first compound 0.316 µM
[10] = second compound 0.1 µM, first compound 1 µM
[11] = second compound 0.1 µM, first compound 3.16 µM
[12] = second compound 0.1 µM, first compound 10 µM
[13] = second compound 0.316 µM, first compound 0.0316 µM
[14] = second compound 0.316 µM, first compound 0.1 µM
[15] = second compound 0.316 µM, first compound 0.316 µM
[16] = second compound 0.316 µM, first compound 1 µM
[17] = second compound 0.316 µM, first compound 3.16 µM
[18] = second compound 0.316 µM, first compound 10 µM
[19] = second compound 1 µM, first compound 0.0316 µM
[20] = second compound 1 µM, first compound 0.1 µM
[21] = second compound 1 µM, first compound 0.316 µM
[22] = second compound 1 µM, first compound 1 µM
[23] = second compound 1 µM, first compound 3.16 µM
[24] = second compound 1 µM, first compound 10 µM
[25] = second compound 3.16 µM, first compound 0.0316 µM
[26] = second compound 3.16 µM, first compound 0.1 µM
[27] = second compound 3.16 µM, first compound 0.316 µM
[28] = second compound 3.16 µM, first compound 1 µM
[29] = second compound 3.16 µM, first compound 3.16 µM
[30] = second compound 3.16 µM, first compound 10 µM
[31] = second compound 10 µM, first compound 0.0316 µM
[32] = second compound 10 µM, first compound 0.1 µM
[33] = second compound 10 µM, first compound 0.316 µM
[34] = second compound 10 µM, first compound 1 µM
[35] = second compound 10 µM, first compound 3.16 µM
[36] = second compound 10 µM, first compound 10 µM
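Note: spheroids exposed to compounds for 7 days before readout.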
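Throughout, for viability, T/C: 100% = DMSO vehicle control viability.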

CC(C)NCC(C(=O)N1CCN(c2ncnc3c2C(C)CC3O)CC1)c1ccc(Cl)cc1 (stereo unspecified) + C#Cc1c(F)ccc2cc(O)cc(-c3ncc4c(N5CC6CCC(C5)N6)nc(OCC56CCCN5CC(F)C6)nc4c3F)c12
IC50 (second compound 0.0316 µM): 1040 nM
IC50 (second compound 0.1 µM): 972 nM
IC50 (second compound 0.316 µM): 422 nM
IC50 (second compound 1 µM): < 31.6 nM
IC50 (second compound 3.16 µM): < 31.6 nM
IC50 (second compound 10 µM): < 31.6 nM
viability, T/C [1]: 102%
viability, T/C [2]: 79.8%
viability, T/C [3]: 63.7%
viability, T/C [4]: 51.8%
viability, T/C [5]: 38.7%
viability, T/C [6]: 34.8%
viability, T/C [7]: 79.9%
viability, T/C [8]: 70.9%
viability, T/C [9]: 61.6%
viability, T/C [10]: 50%
viability, T/C [11]: 39.3%
viability, T/C [12]: 33.4%
viability, T/C [13]: 56.6%
viability, T/C [14]: 59.2%
viability, T/C [15]: 52%
viability, T/C [16]: 42.1%
viability, T/C [17]: 35%
viability, T/C [18]: 26.9%
viability, T/C [19]: 39.3%
viability, T/C [20]: 39.4%
viability, T/C [21]: 35%
viability, T/C [22]: 30.9%
viability, T/C [23]: 22.9%
viability, T/C [24]: 21.1%
viability, T/C [25]: 32%
viability, T/C [26]: 30.4%
viability, T/C [27]: 28.7%
viability, T/C [28]: 24.9%
viability, T/C [29]: 24.6%
viability, T/C [30]: 17.3%
viability, T/C [31]: 25.4%
viability, T/C [32]: 23.5%
viability, T/C [33]: 22.3%
viability, T/C [34]: 21.6%
viability, T/C [35]: 17.1%
viability, T/C [36]: 11.2%

CC(C)n1nc(-c2ccc3oc(N)nc3c2)c2c(N)ncnc21 + C#Cc1c(F)ccc2cc(O)cc(-c3ncc4c(N5CC6CCC(C5)N6)nc(OCC56CCCN5CC(F)C6)nc4c3F)c12
IC50 (second compound 0.0316 µM): 3.97 nM
IC50 (second compound 0.1 µM): 2.76 nM
IC50 (second compound 0.316 µM): 1.26 nM
IC50 (second compound 1 µM): < 0.316 nM
IC50 (second compound 3.16 µM): < 0.316 nM
IC50 (second compound 10 µM): < 0.316 nM
viability, T/C (second compound 0.0316 µM, first compound 0.000316 µM): 78.9%
viability, T/C (second compound 0.0316 µM, first compound 0.001 µM): 70.5%
viability, T/C (second compound 0.0316 µM, first compound 0.00316 µM): 51%
viability, T/C (second compound 0.0316 µM, first compound 0.01 µM): 39.2%
viability, T/C [1]: 31.6%
viability, T/C [2]: 26.3%
viability, T/C (second compound 0.1 µM, first compound 0.000316 µM): 68.5%
viability, T/C (second compound 0.1 µM, first compound 0.001 µM): 68.6%
viability, T/C (second compound 0.1 µM, first compound 0.00316 µM): 46.3%
viability, T/C (second compound 0.1 µM, first compound 0.01 µM): 33.9%
viability, T/C [7]: 27.8%
viability, T/C [8]: 26.6%
viability, T/C (second compound 0.316 µM, first compound 0.000316 µM): 60.8%
viability, T/C (second compound 0.316 µM, first compound 0.001 µM): 51.7%
viability, T/C (second compound 0.316 µM, first compound 0.00316 µM): 42%
viability, T/C (second compound 0.316 µM, first compound 0.01 µM): 34.5%
viability, T/C [13]: 26.7%
viability, T/C [14]: 26.3%
viability, T/C (second compound 1 µM, first compound 0.000316 µM): 33.6%
viability, T/C (second compound 1 µM, first compound 0.001 µM): 35.9%
viability, T/C (second compound 1 µM, first compound 0.00316 µM): 31.3%
viability, T/C (second compound 1 µM, first compound 0.01 µM): 23.7%
viability, T/C [19]: 21.1%
viability, T/C [20]: 18.8%
viability, T/C (second compound 3.16 µM, first compound 0.000316 µM): 29.4%
viability, T/C (second compound 3.16 µM, first compound 0.001 µM): 30.4%
viability, T/C (second compound 3.16 µM, first compound 0.00316 µM): 25.9%
viability, T/C (second compound 3.16 µM, first compound 0.01 µM): 20.2%
viability, T/C [25]: 18.4%
viability, T/C [26]: 15.9%
viability, T/C (second compound 10 µM, first compound 0.000316 µM): 24.1%
viability, T/C (second compound 10 µM, first compound 0.001 µM): 22.3%
viability, T/C (second compound 10 µM, first compound 0.00316 µM): 20%
viability, T/C (second compound 10 µM, first compound 0.01 µM): 15.9%
viability, T/C [31]: 11.5%
viability, T/C [32]: 9.78%

C[C@@H](NC(=O)c1ncnc(N)c1Cl)c1ncc(C(=O)Nc2cc(C(F)(F)F)c(Cl)cn2)s1 + C#Cc1c(F)ccc2cc(O)cc(-c3ncc4c(N5CC6CCC(C5)N6)nc(OCC56CCCN5CC(F)C6)nc4c3F)c12
IC50 (second compound 0.0316 µM): 7000 nM
IC50 (second compound 0.1 µM): 7100 nM
IC50 (second compound 0.316 µM): 2680 nM
IC50 (second compound 1 µM): < 31.6 nM
IC50 (second compound 3.16 µM): < 31.6 nM
IC50 (second compound 10 µM): < 31.6 nM
viability, T/C [1]: 107%
viability, T/C [2]: 102%
viability, T/C [3]: 108%
viability, T/C [4]: 94.4%
viability, T/C [5]: 72.5%
viability, T/C [6]: 40%
viability, T/C [7]: 102%
viability, T/C [8]: 109%
viability, T/C [9]: 103%
viability, T/C [10]: 102%
viability, T/C [11]: 76.3%
viability, T/C [12]: 38.9%
viability, T/C [13]: 69.7%
viability, T/C [14]: 79.6%
viability, T/C [15]: 69.6%
viability, T/C [16]: 60.2%
viability, T/C [17]: 49.2%
viability, T/C [18]: 37.1%
viability, T/C [19]: 46.2%
viability, T/C [20]: 48.5%
viability, T/C [21]: 45.3%
viability, T/C [22]: 39.4%
viability, T/C [23]: 38.4%
viability, T/C [24]: 29.4%
viability, T/C [25]: 30%
viability, T/C [26]: 32.5%
viability, T/C [27]: 28.2%
viability, T/C [28]: 26.5%
viability, T/C [29]: 30.2%
viability, T/C [30]: 28.1%
viability, T/C [31]: 24.4%
viability, T/C [32]: 25.2%
viability, T/C [33]: 25.3%
viability, T/C [34]: 26.2%
viability, T/C [35]: 25%
viability, T/C [36]: 21.7%
